{"source": "paper PMC7377239", "about": "“Cardiovascular Effects of Polychlorinated Biphenyls and Their Major Metabolites” (Environmental Health Perspectives, 2020)", "test_system": "iCell cardiomyocytes (human iPSC-derived cardiomyocytes)", "experiment": "Intracellular Ca2+ flux / beating parameters in iCell cardiomyocytes (FLIPR tetra), 90 min or 24 h", "type": "cell-based", "settings": "Homo sapiens, Cardiomyocyte, 0.00 µM = 100.00; for activity at 0.1 µM: 0.10 µM", "outline": "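PODs were defined as the concentration crossing one SD of the vehicle-control means (0.5% DMSO) on four-parameter logistic fits of Ca2+ trace metrics (peak height, frequency, peak-spacing CV, decay/rise ratio). Traces came from 100 s, 8 Hz FLIPR reads at 37 °C on calcium-dye-loaded iCell cardiomyocytes. Before reading, cells were treated for 90 min or 24 h from 5× chemical plates spanning 0.05–500 µM, in triplicate.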", "key": {"[1]": {"settings": "1.5 h, 90min, read-out: cm.amp.avg.90min"}, "[2]": {"settings": "1.5 h, 90min, read-out: cm.amp.cv.90min"}, "[3]": {"settings": "1.5 h, 90min, read-out: cm.bpm.90min"}, "[4]": {"settings": "1.5 h, 90min, read-out: cm.decay.rise.90min"}, "[5]": {"settings": "1.5 h, 90min, read-out: cm.spacing.cv.90min"}, "[6]": {"settings": "24 h, 24hrs, read-out: cm.amp.avg.24hrs"}, "[7]": {"settings": "24 h, 24hrs, read-out: cm.amp.cv.24hrs"}, "[8]": {"settings": "24 h, 24hrs, read-out: cm.bpm.24hrs"}, "[9]": {"settings": "24 h, 24hrs, read-out: cm.decay.rise.24hrs"}, "[10]": {"settings": "24 h, 24hrs, read-out: cm.spacing.cv.24hrs"}}, "note": "Counter-ions that a name gives are not always drawn. Like-named read-outs stand apart in the source and are kept apart here."}
{"smiles": "O=S(=O)(O)Oc1cc(Cl)c(-c2cc(Cl)ccc2Cl)cc1Cl", "note": "[4-yl PCB 52 sulfate]", "values": [{"measurement": "activity at 0.01 µM", "setting": "[1]", "result": 103, "unit": "%"}, {"measurement": "activity at 0.01 µM", "setting": "[2]", "result": 105, "unit": "%"}, {"measurement": "activity at 0.01 µM", "setting": "[3]", "result": 102, "unit": "%"}, {"measurement": "activity at 0.01 µM", "setting": "[4]", "result": 101, "unit": "%"}, {"measurement": "activity at 0.01 µM", "setting": "[5]", "result": 100, "unit": "%"}, {"measurement": "activity at 0.1 µM", "setting": "[1]", "result": 113, "unit": "%"}, {"measurement": "activity at 0.1 µM", "setting": "[2]", "result": 86.3, "unit": "%"}, {"measurement": "activity at 0.1 µM", "setting": "[3]", "result": 103, "unit": "%"}, {"measurement": "activity at 0.1 µM", "setting": "[4]", "result": 90.8, "unit": "%"}, {"measurement": "activity at 0.1 µM", "setting": "[5]", "result": 101, "unit": "%"}, {"measurement": "activity at 1 µM", "setting": "[1]", "result": 102, "unit": "%"}, {"measurement": "activity at 1 µM", "setting": "[2]", "result": 104, "unit": "%"}, {"measurement": "activity at 1 µM", "setting": "[3]", "result": 100, "unit": "%"}, {"measurement": "activity at 1 µM", "setting": "[4]", "result": 97.7, "unit": "%"}, {"measurement": "activity at 1 µM", "setting": "[5]", "result": 97.4, "unit": "%"}, {"measurement": "activity at 10 µM", "setting": "[1]", "result": 98.4, "unit": "%"}, {"measurement": "activity at 10 µM", "setting": "[2]", "result": 103, "unit": "%"}, {"measurement": "activity at 10 µM", "setting": "[3]", "result": 97.8, "unit": "%"}, {"measurement": "activity at 10 µM", "setting": "[4]", "result": 97.1, "unit": "%"}, {"measurement": "activity at 10 µM", "setting": "[5]", "result": 104, "unit": "%"}, {"measurement": "activity at 100 µM", "setting": "[1]", "result": 0, "unit": "%"}, {"measurement": "activity at 100 µM", "setting": "[2]", "result": 0, "unit": "%"}, {"measurement": "activity at 100 µM", "setting": "[3]", "result": 0, "unit": "%"}, {"measurement": "activity at 100 µM", "setting": "[4]", "result": 0, "unit": "%"}, {"measurement": "activity at 100 µM", "setting": "[5]", "result": 0, "unit": "%"}, {"measurement": "activity at 0.01 µM", "setting": "[6]", "result": 128, "unit": "%"}, {"measurement": "activity at 0.01 µM", "setting": "[7]", "result": 103, "unit": "%"}, {"measurement": "activity at 0.01 µM", "setting": "[8]", "result": 97.4, "unit": "%"}, {"measurement": "activity at 0.01 µM", "setting": "[9]", "result": 104, "unit": "%"}, {"measurement": "activity at 0.01 µM", "setting": "[10]", "result": 107, "unit": "%"}, {"measurement": "activity at 0.1 µM", "setting": "[6]", "result": 135, "unit": "%"}, {"measurement": "activity at 0.1 µM", "setting": "[7]", "result": 70.5, "unit": "%"}, {"measurement": "activity at 0.1 µM", "setting": "[8]", "result": 94.5, "unit": "%"}, {"measurement": "activity at 0.1 µM", "setting": "[9]", "result": 109, "unit": "%"}, {"measurement": "activity at 0.1 µM", "setting": "[10]", "result": 110, "unit": "%"}, {"measurement": "activity at 1 µM", "setting": "[6]", "result": 147, "unit": "%"}, {"measurement": "activity at 1 µM", "setting": "[7]", "result": 69.4, "unit": "%"}, {"measurement": "activity at 1 µM", "setting": "[8]", "result": 95.5, "unit": "%"}, {"measurement": "activity at 1 µM", "setting": "[9]", "result": 104, "unit": "%"}, {"measurement": "activity at 1 µM", "setting": "[10]", "result": 91.9, "unit": "%"}, {"measurement": "activity at 10 µM", "setting": "[6]", "result": 167, "unit": "%"}, {"measurement": "activity at 10 µM", "setting": "[7]", "result": 68.9, "unit": "%"}, {"measurement": "activity at 10 µM", "setting": "[8]", "result": 92.6, "unit": "%"}, {"measurement": "activity at 10 µM", "setting": "[9]", "result": 98.8, "unit": "%"}, {"measurement": "activity at 10 µM", "setting": "[10]", "result": 111, "unit": "%"}, {"measurement": "activity at 100 µM", "setting": "[6]", "result": 0, "unit": "%"}, {"measurement": "activity at 100 µM", "setting": "[7]", "result": 0, "unit": "%"}, {"measurement": "activity at 100 µM", "setting": "[8]", "result": 0, "unit": "%"}, {"measurement": "activity at 100 µM", "setting": "[9]", "result": 0, "unit": "%"}, {"measurement": "activity at 100 µM", "setting": "[10]", "result": 0, "unit": "%"}]}
